Experiment [1] has as its system Bacillus subtilis. Nature of the experiment: Antimicrobial activity against Bacillus subtilis after 18 hrs by disk diffusion method. The format is functional. For orientation: A growth-free zone around the sample is the usual read-out of agar diffusion tests.
In experiment [2] the test system is Streptococcus pyogenes. As to the kind of experiment: Antimicrobial activity against Streptococcus pyogenes after 18 hrs by disk diffusion method. The format is functional.
The subject of experiment [3] is Staphylococcus aureus. Nature of the experiment: Antimicrobial activity against Staphylococcus aureus after 18 hrs by disk diffusion method. The format is functional.
The subject of experiment [4] is Pseudomonas aeruginosa. Nature of the experiment: Antimicrobial activity against Pseudomonas aeruginosa after 18 hrs by disk diffusion method. The format is functional.
Experiment [5] concerns Salmonella enterica. Nature of the experiment: Antimicrobial activity against Salmonella Typhimurium after 18 hrs by disk diffusion method. The format is functional, Salmonella enterica subsp. enterica serovar Typhimurium.
The subject of experiment [6] is Escherichia coli. Nature of the experiment: Antimicrobial activity against Escherichia coli after 18 hrs by disk diffusion method. The format is functional.
For experiment [7], the system named is Bacillus subtilis. As to the kind of experiment: Antimicrobial activity against Bacillus subtilis after 18 hrs by macrodilution test. The format is functional.
Experiment [8] concerns Streptococcus pyogenes. Nature of the experiment: Antimicrobial activity against Streptococcus pyogenes after 18 hrs by macrodilution test. The format is functional.
Experiment [9] has as its system Staphylococcus aureus. As to the kind of experiment: Antimicrobial activity against Staphylococcus aureus after 18 hrs by macrodilution test. The format is functional.
The test system of experiment [10] is Pseudomonas aeruginosa. Nature of the experiment: Antimicrobial activity against Pseudomonas aeruginosa after 18 hrs by macrodilution test. The format is functional.
In experiment [11] the test system is Salmonella enterica. As to the kind of experiment: Antimicrobial activity against Salmonella Typhimurium after 18 hrs by macrodilution test. The format is functional, Salmonella enterica subsp. enterica serovar Typhimurium.
Experiment [12] concerns Escherichia coli. Nature of the experiment: Antimicrobial activity against Escherichia coli after 18 hrs by macrodilution test. The format is functional.
Experiment [13] has as its system Nakaseomyces glabratus. As to the kind of experiment: Antimicrobial activity against Candida glabrata at 100 ug/ml after 48 hrs by disk diffusion method. The following applies: read-out: DIZ. The format is functional.
The test system of experiment [14] is Penicillium. Nature of the experiment: Antimicrobial activity against Penicillium at 100 ug/ml after 48 hrs by disk diffusion method. The format is functional. The settings on record: read-out: DIZ.
Experiment [15] relates to Candida albicans. As to the kind of experiment: Antimicrobial activity against Candida albicans at 100 ug/ml after 48 hrs by disk diffusion method. The format is functional. The following applies: read-out: DIZ.
Experiment [16] has as its system Fusarium oxysporum. As to the kind of experiment: Antimicrobial activity against Fusarium oxysporum at 100 ug/ml after 48 hrs by disk diffusion method. The settings on record: read-out: DIZ. The format is functional.
Experiment [17] relates to Aspergillus niger. Nature of the experiment: Antimicrobial activity against Aspergillus niger at 100 ug/ml after 48 hrs by disk diffusion method. The format is functional. The settings on record: read-out: DIZ.
Experiment [18] concerns Candida albicans. As to the kind of experiment: Antimicrobial activity against Candida albicans at 30 ug after 48 hrs by disk diffusion method. The format is functional, organism-based.
The subject of experiment [19] is Penicillium. Nature of the experiment: Antimicrobial activity against Penicillium at 30 ug after 48 hrs by disk diffusion method. The format is functional, organism-based.
For experiment [20], the system named is Nakaseomyces glabratus. As to the kind of experiment: Antimicrobial activity against Candida glabrata at 30 ug after 48 hrs by disk diffusion method. The format is functional, organism-based.
Experiment [21] deals with Fusarium oxysporum. As to the kind of experiment: Antimicrobial activity against Fusarium oxysporum at 30 ug after 48 hrs by disk diffusion method. The format is functional, organism-based.
Experiment [22] concerns Aspergillus niger. As to the kind of experiment: Antimicrobial activity against Aspergillus niger at 30 ug after 48 hrs by disk diffusion method. The format is functional, organism-based.

Converted amounts (≈) assume the structure as drawn.

By MIC is commonly meant the lowest concentration found to suppress growth. As for `O=C(N[C@H](CO)[C@H](O)c1ccc([N+](=O)[O-])cc1)C(Cl)Cl` [CHLORAMPHENICOL], the “inhibition zone (IZ)” value in experiment [1] was found to be 26.8 mm; in experiment [2], 22.4 mm; in experiment [3], 21 mm; in experiment [4], 17.1 mm; in experiment [5], 25.2 mm; in experiment [6], 20 mm. The MIC in experiment [7], in [8], in [9], in experiment [10], in [11] and in experiment [12] was 32 µg/mL (≈ 99 µM) throughout.

In the case of `CC(=O)O[C@H]1CC[C@]2(C)[C@H]3CC[C@]4(C)[C@@H]([C@H](C)CCCC(C)C)CC[C@H]4[C@@H]3C=C3N=C(N)O[C@@]32C1`, the zone of inhibition at 100 µg/mL in experiment [13] came to 10.1 mm; in experiment [14] it was 15.1 mm; in experiment [15], 20.1 mm; in experiment [16], 12.1 mm; in [17], 11.2 mm. In addition, the “inhibition zone (IZ)” value came out at 13.1 mm in experiment [1]; 12.5 mm in [2]; 12.8 mm in experiment [3]; 15 mm in [4]; 13.2 mm in experiment [5]; 14.1 mm in experiment [6]. Also, the MIC in [7] is 32 µg/mL (≈ 66 µM); in experiment [8], 128 µg/mL (≈ 264 µM); in experiment [9], 128 µg/mL (≈ 264 µM); in experiment [10], 64 µg/mL (≈ 132 µM); in experiment [11], 128 µg/mL (≈ 264 µM); in experiment [12], 128 µg/mL (≈ 264 µM).

`CC(C)CCC[C@@H](C)[C@H]1CC[C@H]2[C@@H]3C=C4N=C(N)O[C@@]45C[C@@H](Cl)CC[C@]5(C)[C@H]3CC[C@]12C`: the zone of inhibition at 100 µg/mL was found to be 15.2 mm in experiment [13]; 16.2 mm in [14]; 21.5 mm in experiment [15]; 13.1 mm in experiment [16]; 12.5 mm in experiment [17]. Further, the “inhibition zone (IZ)” value in [1] came to 15.2 mm; in experiment [2], 15.1 mm; in experiment [3], 15.1 mm; in experiment [4], 16.5 mm; in experiment [5], 14.1 mm; in [6], 16.1 mm. The MIC in experiment [7] was found to be 64 µg/mL (≈ 139 µM); in experiment [8] it was 128 µg/mL (≈ 278 µM); in [9], 64 µg/mL (≈ 139 µM); in experiment [10] it was 64 µg/mL (≈ 139 µM); in [11], 64 µg/mL (≈ 139 µM); in [12], 128 µg/mL (≈ 278 µM).

With `CC(C)CCC[C@@H](C)[C@H]1CC[C@H]2[C@@H]3C=C4N=C(N)O[C@@]45CCCC[C@]5(C)[C@H]3CC[C@]12C`, the zone of inhibition at 100 µg/mL in experiment [13] stood at 9.2 mm; in [14], 14.5 mm; in experiment [15], 19.1 mm; in [16], 10.1 mm; in [17] it was 10.1 mm. Moreover, the “inhibition zone (IZ)” value in [1] turned out to be 12.1 mm; in [2], 11.2 mm; in experiment [3], 10.8 mm; in experiment [4] it was 13.5 mm; in [5], 11.5 mm; in experiment [6], 13.1 mm. Also, the MIC in experiment [7] is 128 µg/mL (≈ 300 µM); in [8], 256 µg/mL (≈ 600 µM); in experiment [9], 128 µg/mL (≈ 300 µM); in [10] it was 128 µg/mL (≈ 300 µM); in experiment [11] it was 128 µg/mL (≈ 300 µM); in experiment [12], 256 µg/mL (≈ 600 µM).

On to NYSTATIN, for which the inhibition zone (IZ) in experiment [18] amounted to 29 mm; in [19], 24.5 mm; in experiment [20] it was 29 mm; in experiment [21], 19.5 mm; in experiment [22], 19.5 mm.

Values taken from ChEMBL document CHEMBL1154851, “Synthesis, antibacterial and antifungal activities of 6,5 fused steroidal oxazoles in cholestane series” (2010).
